Data as given in patent US20140288040A1, “SUBSTITUTED BENZYLAMINE COMPOUNDS, THEIR USE IN MEDICINE, AND IN PARTICULAR THE TREATMENT OF HEPATITIS C VIRUS (HCV) INFECTION” (ASTEX THERAPEUTICS LIMITED, priority 2011, published 2014).
Structures can show the parent of a compound that is named as a salt.

These compounds were tested on HCV subgenomic replicon in Huh-7 cells (assay: Replicon assay, EC50 luciferase readout). Conditions: Hepatitis C virus, Huh-7, 72 h, Huh-7 replicon cells, 72 h; single value, or second value of a pair x:y; read-out: Activity EC50 (μM) (EC50 luciferase readout).
Assay type: cell-based, hepatitis C virus (HCV)
Protocol: The activities of compounds of the invention against HCV in a cellular environment were analysed using a replicon assay as described below.
Thus, Huh-7 cells persistently infected with an HCV-RNA construct (Bartenschlager, R. Hepatitis C replicons: potential role for drug development. Nature Rev. Drug Discov. 1, 911-916 (2002)) comprising: 5′ and 3′ non-translated regions (NTR); the non-structural genes NS3 to NS5b; as well as the G418 drug resistance gene, neomycin, (for selection of cells carrying HCV replicon RNA) fused to the firefly Luciferase reporter gene (pFK13889luc-ubi-neoNS3-3′ET), were used to determine the cell based antiviral activity of compounds using luciferase activity as an indirect readout of HCV RNA load. In this assay […] huh-7 cells persistently infected with the HCV subgenomic replicon construct above were platedwell in a 96 well tissue culture plate. The cells were allowed to attach overnight in DMEM medium supplemented with 10% FBS 1% NEAA, and 250 μgml gentamicin. The following day the medium was replaced with 200 μlwell of fresh medium as described above lacking gentamicin. […] Plates were then incubated at 37° C. in an atmosphere of 5% CO2 and air for 72 h. […] The plate was then read at 535 nm (excitation) and 590 nm (emission) on a SpectraMax Gemini reader (Molecular Devices) to determine the number of viable cells by measuring the conversion of rezasurin (Alamar blue) to resorufin in response to mitochondrial activity. In order to determine the antiviral effect of these compounds EC50 values were determined by measuring the luciferase activity of the cells. Alamar blue solution was removed from the wells and replaced with 100 μlwell of medium along with 100 μlwell of Bright-Glo reagent and incubated at room temperature for 5 minutes before transferring 100 μlwell to a white bottom 96 well plate to read in a luminometer as described in the Bright-Glo Luciferase Assay System protocol (promega).

Row | SMILES | EC50
1 | CCNC(=O)CNC(=O)C[C@H](C)N[C@H](CC)c1ccc(Cl)c(Oc2ccccc2)c1F [Example 243] | 3.8 µM
2 | CC[C@H](NCC(N)=O)c1ccc(F)c(Oc2ccccc2)c1F [Example 301] | 26 µM
3 | CC[C@H](NCCC(=O)NO)c1ccc(F)c(Oc2ccccc2)c1F [Example 302] | 6.9 µM
4 | CC[C@@H](N[C@@H](C)CC(N)=O)c1ccc(Cl)c(Oc2ccc(Cl)cc2)c1F.Cl [Example 400] | 3 µM
5 | CC[C@@H](N[C@@H](C)CC(N)=O)c1ccc(Cl)c(Oc2ccc(N)cc2)c1F.Cl [Example 404] | 0.023 µM
6 | CC[C@@H](N[C@@H](C)CC(N)=O)c1ccc(Cl)c(Oc2ccc(NC(C)=O)cc2)c1F [Example 405] | 0.3 µM
7 | CC[C@@H](N[C@@H](C)CC(N)=O)c1ccc(Cl)c(Oc2ccc(NC(=O)N(C)C)cc2)c1F.Cl [Example 407] | 0.11 µM
8 | CC[C@@H](N[C@@H](C)CC(N)=O)c1ccc(Cl)c(Oc2ccc3c(c2)OCCN3)c1F.Cl [Example 409] | 0.02 µM
9 | CC[C@@H](N[C@@H](C)CC(N)=O)c1ccc(Cl)c(Oc2ccc3c(c2)OCCO3)c1F.Cl [Example 410] | 0.31 µM
10 | CC[C@@H](N[C@@H](C)CC(N)=O)c1ccc(Cl)c(Oc2ccccn2)c1F.Cl [Example 413] | 3 µM
11 | CC[C@@H](N[C@@H](C)CC(N)=O)c1ccc(Cl)c(Oc2ccc(-c3ccn[nH]3)cc2)c1F.Cl [Example 417] | 0.91 µM
12 | CC[C@@H](N[C@@H](C)CC(N)=O)c1ccc(Cl)c(Oc2ccc(F)c(C(N)=O)c2)c1F.Cl [Example 419] | 0.82 µM
13 | CC[C@@H](N[C@@H](C)CC(N)=O)c1ccc(Cl)c(Oc2ccc(F)c(C(=O)NC)c2)c1F.Cl [Example 421] | 0.4 µM
14 | CC[C@@H](N[C@@H](C)CC(N)=O)c1ccc(Cl)c(Oc2ccc(F)c(C(=O)N3CCOCC3)c2)c1F.Cl [Example 423] | 1.4 µM
15 | CC[C@@H](N[C@@H](C)CC(N)=O)c1ccc(Cl)c(Oc2ccc(F)c(C(=O)N(C)C)c2)c1F.Cl [Example 425] | 0.35 µM

Same assay, conditions: Hepatitis C virus, Huh-7, replicon assay; set in line with previous observations; read-out: pre-determined EC50 set for the combination experiments

Row | SMILES | EC50
16 | CC(C)(C)OC(=O)N[C@H]1CCCCC/C=C\[C@@H]2C[C@@]2(C(=O)NS(=O)(=O)C2CC2)NC(=O)[C@@H]2C[C@@H](OC(=O)N3Cc4cccc(F)c4C3)CN2C1=O [Danoprevir, reference compound] | 0.001 µM

Same assay, conditions: Huh-7 replicon cells, 72 h; single value, or second value of a pair x:y; read-out: Activity EC50 (μM) (EC50 luciferase readout)

Row | SMILES | EC50
17 | CCC(NC1CCCNC1)c1ccc(F)c(Oc2ccccc2)c1F (stereo not shown) [Example 18] | 1.6 µM

The compounds below were run against T1, HCV NS3 protease (full length NS34a) (Hepatitis C virus genotype 1b, UniProt P26663) (assay: HCV NS3 protease assay (FRET, full length NS34a)). Conditions: IC50 values of 10-150 μM against the protease activity of the full length NS34a, or at least 40% inhibition of protease activity at a concentration of 100 μM.
T1 construct: The protease activity of the full length NS34a was measured using a FRET-based assay; made in house
Assay type: biochemical
Protocol: The HCV NS3 protease functions have been extensively studied and are considered as potential targets for antiviral therapy: see for example the many references listed in the introductory section of this application. Therefore, the activity of the compounds of the invention as anti-HCV agents was assessed using a full length HCV NS3 protease.
The protease activity of the full length NS34a was measured using a FRET-based assay utilizing a peptide substrate derived from the NS4AB cleavage site (Anaspec) and labelled at one end with a quencher (QXL520) and at the other with a fluorophore (5-FAMsp). NS34a (produced in-house by literature methods) was incubated with test compounds and peptide substrate in 50 mM Tris pH8, 20 mM DTT, 1% CHAPS, 10% glycerol and 5% DMSO. The reaction was followed by monitoring the change in fluorescence on a Molecular Devices Gemini plate reader for 30 minutes at room temperature. Initial rates were calculated from the progress curves using SoftMax Pro (Molecular Devices). IC50 values were then calculated from replicate curves using Prism GraphPad software.

T1 sequence (P26663 1658-1711): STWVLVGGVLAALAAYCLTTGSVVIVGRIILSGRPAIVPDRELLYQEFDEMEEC
T1 sequence (P26663 1027-1657): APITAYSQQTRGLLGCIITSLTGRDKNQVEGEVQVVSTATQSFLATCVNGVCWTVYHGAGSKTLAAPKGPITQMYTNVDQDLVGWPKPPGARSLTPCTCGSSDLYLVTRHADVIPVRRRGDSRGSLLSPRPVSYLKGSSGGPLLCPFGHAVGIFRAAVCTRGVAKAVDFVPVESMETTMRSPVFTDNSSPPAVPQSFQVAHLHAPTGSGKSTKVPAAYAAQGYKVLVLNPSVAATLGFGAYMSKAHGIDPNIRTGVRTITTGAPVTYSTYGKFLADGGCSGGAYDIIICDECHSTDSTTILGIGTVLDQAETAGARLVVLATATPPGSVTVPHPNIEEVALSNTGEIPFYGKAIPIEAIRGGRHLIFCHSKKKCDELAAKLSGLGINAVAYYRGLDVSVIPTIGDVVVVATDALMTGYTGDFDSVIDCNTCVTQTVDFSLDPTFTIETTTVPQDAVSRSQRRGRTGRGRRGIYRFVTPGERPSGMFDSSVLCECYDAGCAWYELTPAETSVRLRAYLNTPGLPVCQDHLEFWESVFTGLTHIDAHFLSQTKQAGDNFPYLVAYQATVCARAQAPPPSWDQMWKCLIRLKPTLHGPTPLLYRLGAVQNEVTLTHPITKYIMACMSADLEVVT

Row | SMILES | IC50
18 | CCC(NCc1ccc[nH]1)c1ccc(F)c(Oc2ccccc2)c1F (stereo not shown) [Example 291] | 10 to 150 µM
19 | CCC(NCc1ncc[nH]1)c1ccc(F)c(Oc2ccccc2)c1F (stereo not shown) [Example 292] | 10 to 150 µM
20 | NC(CCO)c1ccc(F)c(Oc2ccccc2)c1F (stereo not shown) [Example 294, 3-Amino-3-(2,4-difluoro-3-phenoxy-phenyl)-propan-1-ol.hydrochloride] | 10 to 150 µM
21 | C[C@@H](CC(N)=O)N[C@@H](c1ccc(Cl)c(Oc2ccccc2)c1F)C1CCOCC1 [Example 299] | 10 to 150 µM
22 | CC[C@@H](N[C@H](C)CC(=O)NC(C)C)c1ccc(Cl)c(Oc2ccccc2)c1F [Example 304] | 10 to 150 µM
23 | CC[C@@H](N[C@H](C)CC(=O)NOC)c1ccc(Cl)c(Oc2ccccc2)c1F [Example 307] | 10 to 150 µM
24 | CC[C@@H](N[C@H](C)CC(=O)NCC(=O)OC)c1ccc(Cl)c(Oc2ccccc2)c1F [Example 308] | 10 to 150 µM
25 | CC[C@@H](N[C@@H](C)CC(=O)N[C@H]1C[C@@H](N)C1)c1ccc(Cl)c(Oc2ccccc2)c1F [Example 320] | 10 to 150 µM
26 | C[C@H](CC(N)=O)NCc1ccc(F)c(Oc2ccccc2)c1F [Example 327] | 10 to 150 µM
27 | CC[C@@H](N[C@@H](C)C(=O)N(C)C)c1ccc(Cl)c(Oc2ccccc2)c1F [Example 332] | 10 to 150 µM
28 | CC[C@@H](N[C@@H](C)CC(N)=O)c1ccc(Cl)c(Oc2ccc(F)cc2N)c1F [Example 334] | 10 to 150 µM
29 | C[C@H](CC(N)=O)N[C@H](C)c1ccc(Cl)c(Oc2ccccc2)c1F [Example 335] | 10 to 150 µM
30 | C[C@@H](N)c1ccc(Cl)c(Oc2ccccc2)c1F [Example 341] | 10 to 150 µM
31 | C[C@H](CC(N)=O)N[C@H](CCO)c1ccc(Cl)c(Oc2ccccc2)c1F [Example 353] | 10 to 150 µM
32 | NC(=O)C[C@@H](N)c1ccc(Cl)c(Oc2ccccc2)c1F [Example 354] | 10 to 150 µM
33 | CC[C@@H](N)c1ccc(Cl)c(Oc2ccc(NC(C)=O)nc2)c1F [Example 355] | 10 to 150 µM
34 | CN[C@H](CCOC)c1ccc(Cl)c(Oc2ccccc2)c1F [Example 359] | 10 to 150 µM

Same assay, conditions: protease activity of full length NS34a, FRET peptide substrate; read-out: Activity IC50

Row | SMILES | IC50
35 | CC[C@@H](N[C@H](C)CC(N)=O)c1ccc(Cl)c(Oc2ccc(-c3cnco3)c(C)c2)c1F [Example 318] | 6.4 µM
36 | CC[C@@H](N[C@@H](C)CC(=O)NCCNC1CC1)c1ccc(Cl)c(Oc2ccccc2)c1F [Example 321] | 1.6 µM
37 | CC[C@@H](N[C@H](C)CC(N)=O)c1ccc(Cl)c(Oc2ccc3c(c2)C(C)(C)CN3)c1F [Example 323] | 3.1 µM
38 | C[C@@H](CC(N)=O)NCc1ccc(F)c(Oc2ccccc2)c1F [Example 326] | 3.9 µM
39 | C[C@@H](CC(N)=O)NCc1ccc(Cl)c(Oc2ccccc2)c1F [Example 328] | 1.4 µM
40 | CC[C@H](Nc1ncc(CN)cn1)c1ccc(Cl)c(Oc2ccccc2)c1F [Example 330] | 1.1 µM
41 | C[C@@H](CC(N)=O)N[C@H](C)c1ccc(Cl)c(Oc2ccccc2)c1F [Example 336] | 1 µM
42 | COCC[C@@H](N)c1ccc(Cl)c(Oc2ccccc2)c1F [Example 337, (R)-1-(4-Chloro-2-fluoro-3-phenoxy-phenyl)-3-methoxy-propylamine hydrochloride] | 7.6 µM
43 | N[C@@H](CCO)c1ccc(Cl)c(Oc2ccccc2)c1F [Example 338, 3-Amino-3-(4-chloro-2-fluoro-3-phenoxy-phenyl)-propan-1-ol.hydrochloride] | 2 µM
44 | C[C@H](CC(=O)NCCN)N[C@H](C)c1ccc(Cl)c(Oc2ccccc2)c1F [Example 340] | 0.08 µM
45 | C[C@H](N)c1ccc(Cl)c(Oc2ccccc2)c1F [Example 342] | 2.7 µM
46 | N[C@H](CCO)c1ccc(Cl)c(Oc2ccccc2)c1F [Example 343] | 6.3 µM
47 | N[C@H](c1ccc(Cl)c(Oc2ccccc2)c1F)C1CCOCC1 [Example 344] | 1.5 µM
48 | Cc1cc(Oc2c(Cl)ccc([C@@H](N)C3CCOCC3)c2F)ccc1[N+](=O)[O-] [Example 345] | 1.8 µM
49 | CCC(CC)[C@@H](N)c1ccc(Cl)c(Oc2ccccc2)c1F [Example 346] | 5 µM
50 | CCC(CC)[C@H](N)c1ccc(Cl)c(Oc2ccccc2)c1F [Example 347] | 2.7 µM
51 | C[C@H](CC(N)=O)N[C@H](c1ccc(Cl)c(Oc2ccccc2)c1F)C1CCOCC1 [Example 348] | 10 µM
52 | C[C@@H](CC(N)=O)N[C@@H](CCO)c1ccc(Cl)c(Oc2ccccc2)c1F [Example 350] | 2.6 µM
53 | C[C@H](CC(=O)NCCN)N[C@@H](CC1CCOCC1)c1ccc(Cl)c(Oc2ccccc2)c1F [Example 351] | 6.4 µM
54 | C[C@@H](CC(=O)NCCN)N[C@@H](CC1CCOCC1)c1ccc(Cl)c(Oc2ccccc2)c1F [Example 352] | 0.32 µM
55 | N[C@@H](c1ccc(Cl)c(Oc2ccccc2)c1F)C1CCOCC1 [Example 356] | 6.4 µM
56 | N[C@H](CCF)c1ccc(Cl)c(Oc2ccccc2)c1F [Example 357, (R)-1-(4-Chloro-2-fluoro-3-phenoxy-phenyl)-3-fluoro-propylamine.hydrochloride] | 5.7 µM
57 | C[C@@H](CC(N)=O)N[C@H](CCO)c1ccc(Cl)c(Oc2ccccc2)c1F [Example 358] | 0.91 µM

Same assay, conditions: read-out: Activity % inhibition @ 0.01 μM; 0.01 μM compound

Row | SMILES | inhibition at 0.01 µM
58 | C[C@@H](CC(=O)NCCN)N[C@H](C)c1ccc(Cl)c(Oc2ccccc2)c1F [Example 339] | 65%
